Laboratory results as given in patent US20250304596A1, “PYRAZINE DERIVATIVES AND USES THEREOF” (FOGHORN THERAPEUTICS INC., priority 2022, published 2025).

Key:
[1] = target: T1, HiBit-BRM fusion protein (Homo sapiens, UniProt P51531); test: HiBiT-BRM cell-based degradation assay (Nano-Glo HiBiT Lytic Detection, 24 h); conditions: stable HeLa cell line expressing HiBiT-BRM; for DC50: read-out: BRM HiBit Degradation IC50
T1 construct: expressed in transfected cells
Procedure, shortened: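 A stable HeLa line expressing HiBiT-BRM was treated for 24 h with compound in a 10-point, 3-fold series (30 μM final top dose). Remaining HiBiT-BRM was read by lytic LgBiT complementation luminescence. % degradation was normalised to DMSO (high control) and 2 μM reference BRM/BRG1 degrader (low control).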

[2] = target: T2, HiBit-BRG1 fusion protein (Homo sapiens, UniProt P51532); test: HiBiT-BRG1 cell-based degradation assay (Nano-Glo HiBiT Lytic Detection, 24 h); conditions: stable HeLa cell line expressing HiBit-BRG1 and LgBit; for Dmax: read-out: BRG1 HiBit Degradation Maximum (%); for DC50: read-out: BRMG1 HiBit Degradation IC50
T2 construct: expressed in transfected cells
Procedure, shortened: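 HeLa cells stably expressing HiBit-BRG1 and LgBit, treated 24 h with 3-fold dilutions (10 points, duplicate, 30 μM final top dose). Luminescence read after Nano-Glo HiBiT lytic reagent; % degradation scaled between DMSO (high) and 2 μM reference BRM/BRG1 degrader (low control).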

T2 sequence (P51532 whole entry, the tested form may be a part): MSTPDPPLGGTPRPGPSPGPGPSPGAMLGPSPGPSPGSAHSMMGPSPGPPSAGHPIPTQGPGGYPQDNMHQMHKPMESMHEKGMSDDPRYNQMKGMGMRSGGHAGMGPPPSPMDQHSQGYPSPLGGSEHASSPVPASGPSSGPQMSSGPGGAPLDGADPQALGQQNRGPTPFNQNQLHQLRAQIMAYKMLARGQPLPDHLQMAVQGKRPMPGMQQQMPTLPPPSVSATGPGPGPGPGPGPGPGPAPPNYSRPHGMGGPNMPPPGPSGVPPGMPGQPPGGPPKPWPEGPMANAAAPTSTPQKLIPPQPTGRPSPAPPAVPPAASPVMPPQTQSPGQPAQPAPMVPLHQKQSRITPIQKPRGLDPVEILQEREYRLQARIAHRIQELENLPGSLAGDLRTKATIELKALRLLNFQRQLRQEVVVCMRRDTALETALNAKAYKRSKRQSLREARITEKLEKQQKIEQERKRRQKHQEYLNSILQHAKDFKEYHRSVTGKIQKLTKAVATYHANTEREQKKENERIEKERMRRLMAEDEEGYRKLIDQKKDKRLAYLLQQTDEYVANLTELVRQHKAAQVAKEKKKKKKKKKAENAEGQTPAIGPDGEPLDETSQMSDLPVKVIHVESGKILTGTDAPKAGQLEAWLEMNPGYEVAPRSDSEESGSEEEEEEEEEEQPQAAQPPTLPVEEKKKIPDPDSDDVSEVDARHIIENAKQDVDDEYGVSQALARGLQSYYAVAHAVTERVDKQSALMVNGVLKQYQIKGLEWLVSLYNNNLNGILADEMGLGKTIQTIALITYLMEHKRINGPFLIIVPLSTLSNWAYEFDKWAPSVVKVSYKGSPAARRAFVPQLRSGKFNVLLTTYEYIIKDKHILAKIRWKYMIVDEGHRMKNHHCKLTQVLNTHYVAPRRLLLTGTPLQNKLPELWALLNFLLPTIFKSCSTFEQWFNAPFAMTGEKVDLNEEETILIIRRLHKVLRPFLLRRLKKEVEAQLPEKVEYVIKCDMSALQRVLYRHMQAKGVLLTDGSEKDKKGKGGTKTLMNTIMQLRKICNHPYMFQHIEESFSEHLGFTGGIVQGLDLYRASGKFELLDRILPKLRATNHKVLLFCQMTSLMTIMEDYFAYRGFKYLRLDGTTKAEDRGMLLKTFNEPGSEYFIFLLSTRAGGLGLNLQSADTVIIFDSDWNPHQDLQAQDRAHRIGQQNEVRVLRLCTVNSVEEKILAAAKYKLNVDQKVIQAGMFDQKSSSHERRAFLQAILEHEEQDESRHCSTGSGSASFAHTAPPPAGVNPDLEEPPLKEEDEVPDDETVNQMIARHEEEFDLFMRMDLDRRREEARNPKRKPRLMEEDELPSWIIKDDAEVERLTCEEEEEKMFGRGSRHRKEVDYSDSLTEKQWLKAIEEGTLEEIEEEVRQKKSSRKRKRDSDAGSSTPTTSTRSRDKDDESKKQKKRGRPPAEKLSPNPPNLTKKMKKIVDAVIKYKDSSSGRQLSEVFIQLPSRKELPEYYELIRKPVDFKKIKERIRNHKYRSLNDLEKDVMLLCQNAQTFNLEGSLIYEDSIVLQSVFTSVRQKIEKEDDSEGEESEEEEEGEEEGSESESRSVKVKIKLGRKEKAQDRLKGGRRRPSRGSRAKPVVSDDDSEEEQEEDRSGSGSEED
T1 sequence (P51531 whole entry, the tested form may be a part): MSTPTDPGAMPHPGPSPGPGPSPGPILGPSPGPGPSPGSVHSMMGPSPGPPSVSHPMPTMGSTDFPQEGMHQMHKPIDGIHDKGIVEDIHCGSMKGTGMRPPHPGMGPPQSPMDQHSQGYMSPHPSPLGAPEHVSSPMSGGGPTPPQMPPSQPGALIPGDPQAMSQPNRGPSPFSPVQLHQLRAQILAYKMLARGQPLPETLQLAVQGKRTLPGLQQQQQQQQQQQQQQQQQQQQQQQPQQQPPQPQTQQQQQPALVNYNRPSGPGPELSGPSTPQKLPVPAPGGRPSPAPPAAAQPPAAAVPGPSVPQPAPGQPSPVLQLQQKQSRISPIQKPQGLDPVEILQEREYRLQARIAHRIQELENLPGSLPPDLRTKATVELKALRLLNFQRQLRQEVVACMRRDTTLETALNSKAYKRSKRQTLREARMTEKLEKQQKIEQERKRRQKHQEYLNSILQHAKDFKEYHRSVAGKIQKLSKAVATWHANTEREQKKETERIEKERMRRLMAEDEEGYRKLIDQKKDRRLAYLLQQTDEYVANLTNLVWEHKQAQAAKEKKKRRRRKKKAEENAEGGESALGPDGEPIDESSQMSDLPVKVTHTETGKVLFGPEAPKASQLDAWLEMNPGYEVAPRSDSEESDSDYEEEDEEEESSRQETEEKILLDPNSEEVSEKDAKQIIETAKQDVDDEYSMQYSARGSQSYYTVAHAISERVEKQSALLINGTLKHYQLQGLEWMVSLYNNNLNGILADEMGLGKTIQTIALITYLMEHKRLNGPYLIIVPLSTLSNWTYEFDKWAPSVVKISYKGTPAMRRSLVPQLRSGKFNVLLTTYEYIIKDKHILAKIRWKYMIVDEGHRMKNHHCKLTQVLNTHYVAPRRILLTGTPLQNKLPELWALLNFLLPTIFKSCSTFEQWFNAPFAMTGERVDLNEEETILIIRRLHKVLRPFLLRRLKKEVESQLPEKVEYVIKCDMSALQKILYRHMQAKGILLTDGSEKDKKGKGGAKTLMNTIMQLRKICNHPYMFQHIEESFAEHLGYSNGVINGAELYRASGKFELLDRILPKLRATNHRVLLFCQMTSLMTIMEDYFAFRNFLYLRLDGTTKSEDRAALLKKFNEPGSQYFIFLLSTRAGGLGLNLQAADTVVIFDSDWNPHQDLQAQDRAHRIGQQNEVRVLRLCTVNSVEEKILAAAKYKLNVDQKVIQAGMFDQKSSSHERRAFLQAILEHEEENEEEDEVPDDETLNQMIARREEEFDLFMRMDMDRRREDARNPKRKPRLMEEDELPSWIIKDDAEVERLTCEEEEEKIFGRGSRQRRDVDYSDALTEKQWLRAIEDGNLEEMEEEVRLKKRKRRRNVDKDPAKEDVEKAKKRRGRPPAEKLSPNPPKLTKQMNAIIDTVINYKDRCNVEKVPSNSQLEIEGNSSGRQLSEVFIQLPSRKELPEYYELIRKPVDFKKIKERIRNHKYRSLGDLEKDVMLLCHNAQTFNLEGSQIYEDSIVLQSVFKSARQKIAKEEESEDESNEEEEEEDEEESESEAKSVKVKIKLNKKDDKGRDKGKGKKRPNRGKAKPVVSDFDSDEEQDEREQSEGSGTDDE

| SMILES | BRM HiBit Degradation Maximum (%) [1] | DC50 [1] | Dmax [2] | DC50 [2] |
| --- | --- | --- | --- | --- |
| Cc1ncsc1-c1ccc([C@H](C)NC(=O)[C@@H]2C[C@@H](O)CN2C(=O)[C@@H](c2cc(-c3ccc(N4CCC(c5cc6cc(-c7ccccc7O)nnc6s5)CC4)nc3)no2)C(C)C)cc1 [Compound 39, (2S,4R)-4-hydroxy-1-((R)-2-(3-(6-(4-(3-(2-hydroxyphenyl)thieno[2,3-c]pyridazin-6-yl)piperidin-1-yl)pyridin-3-yl)isoxazol-5-yl)-3-methylbutanoyl)-N-((S)-1-(4-(4-methylthiazol-5-yl)phenyl)ethyl)pyrrolidine-2-carboxamide] | A (“A” indicates maximum degradation ≥75%) | > 0.01 µM | < 50% | > 1 µM |
| Cc1ncsc1-c1ccc([C@H](C)NC(=O)[C@@H]2C[C@@H](O)CN2C(=O)[C@@H](c2cc(N3CCN(c4sc5nnc(-c6ccccc6O)cc5c4C)CC3)no2)C(C)C)cc1 [Compound 80, (2S,4R)-4-hydroxy-1-((R)-2-(3-(4-(3-(2-hydroxyphenyl)-5-methylthieno[2,3-c]pyridazin-6-yl)piperazin-1-yl)isoxazol-5-yl)-3-methylbutanoyl)-N-((S)-1-(4-(4-methylthiazol-5-yl)phenyl)ethyl)pyrrolidine-2-carboxamide] | A (“A” indicates maximum degradation ≥75%) | > 0.01 µM | < 50% | – |
| Cc1ncsc1-c1ccc([C@H](C)NC(=O)[C@@H]2C[C@@H](O)CN2C(=O)[C@@H](c2cc(-c3cnc(N4CC[C@@H](c5cc6cc(-c7ccccc7O)nnc6s5)C4)nc3)no2)C(C)C)cc1 (single isomer, unassigned) [Compound 5] | A (“A” indicates maximum degradation ≥75%) | < 0.01 µM | < 50% | > 1 µM |
| Cc1ncsc1-c1ccc([C@H](C)NC(=O)[C@@H]2C[C@@H](O)CN2C(=O)[C@@H](c2cc(-c3ccc(N4CC(c5cc6cc(-c7ccccc7O)nnc6s5)C4)nn3)no2)C(C)C)cc1 [Compound 24, (2S,4R)-4-hydroxy-1-((R)-2-(3-(6-(3-(3-(2-hydroxyphenyl)thieno[2,3-c]pyridazin-6-yl)azetidin-1-yl)pyridazin-3-yl)isoxazol-5-yl)-3-methylbutanoyl)-N-((S)-1-(4-(4-methylthiazol-5-yl)phenyl)ethyl)pyrrolidine-2-carboxamide] | A (“A” indicates maximum degradation ≥75%) | > 0.01 µM | > 50% | > 0.1 µM |
| Cc1ncsc1-c1ccc([C@H](C)NC(=O)[C@@H]2C[C@@H](O)CN2C(=O)[C@@H](c2cc(Oc3cnc(N4CCC(c5sc6nnc(-c7ccccc7O)cc6c5C)CC4)nc3)no2)C(C)C)cc1 (single isomer, unassigned) [Compound 51] | A (“A” indicates maximum degradation ≥75%) | > 0.01 µM | < 50% | > 1 µM |
| Cc1nc(N2CCC(c3sc4nnc(-c5ccccc5O)cc4c3C)CC2)ncc1-c1cc([C@H](C(=O)N2C[C@H](O)C[C@H]2C(=O)N[C@@H](C)c2ccc(-c3scnc3C)cc2)C(C)C)on1 [Compound 93, (2S,4R)-4-hydroxy-1-((R)-2-(3-(2-(4-(3-(2-hydroxyphenyl)-5-methylthieno[2,3-c]pyridazin-6-yl)piperidin-1-yl)-4-methylpyrimidin-5-yl)isoxazol-5-yl)-3-methylbutanoyl)-N-((S)-1-(4-(4-methylthiazol-5-yl)phenyl)ethyl)pyrrolidine-2-carboxamide] | A (“A” indicates maximum degradation ≥75%) | < 0.01 µM | > 50% | – |
| Cc1ncsc1-c1ccc([C@H](C)NC(=O)[C@@H]2C[C@@H](O)CN2C(=O)C(c2cc(N3CC4(C3)CN(c3cc5nnc(-c6ccccc6O)cc5s3)C4)no2)C(C)C)cc1 (stereo partly drawn) [Compound 67, (2S,4R)-4-hydroxy-1-(2-(3-(6-(3-(2-hydroxyphenyl)thieno[3,2-c]pyridazin-6-yl)-2,6-diazaspiro[3.3]heptan-2-yl)isoxazol-5-yl)-3-methylbutanoyl)-N-((S)-1-(4-(4-methylthiazol-5-yl)phenyl)ethyl)pyrrolidine-2-carboxamide] | A (“A” indicates maximum degradation ≥75%) | < 0.01 µM | < 50% | – |
| Cc1cc(N2CC[C@H](c3sc4nnc(-c5ccccc5O)cc4c3C)C2)ncc1-c1cc([C@H](C(=O)N2C[C@H](O)C[C@H]2C(=O)N[C@@H](C)c2ccc(-c3scnc3C)cc2)C(C)C)on1 [Compound 97, (2S,4R)-4-hydroxy-1-((R)-2-(3-(6-((S)-3-(3-(2-hydroxyphenyl)-5-methylthieno[2,3-c]pyridazin-6-yl)pyrrolidin-1-yl)-4-methylpyridin-3-yl)isoxazol-5-yl)-3-methylbutanoyl)-N-((S)-1-(4-(4-methylthiazol-5-yl)phenyl)ethyl)pyrrolidine-2-carboxamide] | A (“A” indicates maximum degradation ≥75%) | > 0.01 µM | < 50% | – |
| Cc1ncsc1-c1ccc([C@H](C)NC(=O)[C@@H]2C[C@@H](O)CN2C(=O)[C@@H](c2cc(-c3ccc(N4CCC(c5sc6nnc(-c7ccccc7O)cc6c5C)CC4)cc3)no2)C(C)C)cc1 [Compound 26, (2S,4R)-4-hydroxy-1-((R)-2-(3-(4-(4-(3-(2-hydroxyphenyl)-5-methylthieno[2,3-c]pyridazin-6-yl)piperidin-1-yl)phenyl)isoxazol-5-yl)-3-methylbutanoyl)-N-((S)-1-(4-(4-methylthiazol-5-yl)phenyl)ethyl)pyrrolidine-2-carboxamide] | A (“A” indicates maximum degradation ≥75%) | < 0.01 µM | < 50% | > 1 µM |
| COc1nc(N2CCC(c3sc4nnc(-c5ccccc5O)cc4c3C)CC2)ccc1-c1cc([C@H](C(=O)N2C[C@H](O)C[C@H]2C(=O)N[C@@H](C)c2ccc(-c3scnc3C)cc2)C(C)C)on1 [Compound 20, (2S,4R)-4-hydroxy-1-((R)-2-(3-(6-(4-(3-(2-hydroxyphenyl)-5-methylthieno[2,3-c]pyridazin-6-yl)piperidin-1-yl)-2-methoxypyridin-3-yl)isoxazol-5-yl)-3-methylbutanoyl)-N-((S)-1-(4-(4-methylthiazol-5-yl)phenyl)ethyl)pyrrolidine-2-carboxamide] | A (“A” indicates maximum degradation ≥75%) | > 0.01 µM | < 50% | > 1 µM |
| Cc1nc(N2CC[C@H](c3sc4nnc(-c5ccccc5O)cc4c3C)C2)ccc1-c1cc([C@H](C(=O)N2C[C@H](O)C[C@H]2C(=O)N[C@@H](C)c2ccc(-c3scnc3C)cc2)C(C)C)on1 [Compound 95, (2S,4R)-4-hydroxy-1-((R)-2-(3-(6-((S)-3-(3-(2-hydroxyphenyl)-5-methylthieno[2,3-c]pyridazin-6-yl)pyrrolidin-1-yl)-2-methylpyridin-3-yl)isoxazol-5-yl)-3-methylbutanoyl)-N-((S)-1-(4-(4-methylthiazol-5-yl)phenyl)ethyl)pyrrolidine-2-carboxamide] | A (“A” indicates maximum degradation ≥75%) | < 0.01 µM | < 50% | – |
